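Five compound concentrations were applied to cells in 96-well plates for 48 hours; endpoints were derived by simple linear interpolation of the resulting dose-response curve. GI50 is the concentration that inhibits growth by half.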 The source made the active and inactive calls. Cut-off read from the data, not from the text of the source: active = GI50 up to about 1.1 µM and inactive = higher.
Legend:
Assay in all cases: DTP human tumour cell line panel, 48 h
786-0 = system: 786-0
EKVX = system: EKVX
HCT-116 = system: HCT-116
HOP-92 = system: HOP-92
KM-20L2 = system: KM-20L2
M19-MEL = system: M19-MEL
NCI-H522 = system: NCI-H522
OVCAR-3 = system: OVCAR-3
OVCAR-8 = system: OVCAR-8
SK-OV-3 = system: SK-OV-3
SN12C = system: SN12C
SW-620 = system: SW-620
UACC-62 = system: UACC-62
BT-549 = system: BT-549
Hs-578T = system: Hs-578T
NCI-H226 = system: NCI-H226
NCI/ADR-RES = system: NCI/ADR-RES
RPMI-8226 = system: RPMI-8226
SNB-19 = system: SNB-19

Measured: GI50

CCOCc1cc(=O)c2c(OC)cc3c(c2o1)CCC(C)(C)O3
inactive: 786-0 > 100 µM | EKVX > 100 µM | HCT-116 > 100 µM | HOP-92 33.4 µM | KM-20L2 > 100 µM | M19-MEL > 100 µM | NCI-H522 > 100 µM | OVCAR-3 > 100 µM | OVCAR-8 > 100 µM | SK-OV-3 > 100 µM | SN12C > 100 µM | SW-620 > 100 µM | UACC-62 > 100 µM

O=S1(=O)CCN(Cc2ccccc2)/C1=N\S(=O)(=O)c1ccc(Cl)cc1
inactive: 786-0 19.7 µM | BT-549 17.2 µM | EKVX 15.1 µM | HCT-116 18.5 µM | HOP-92 18.6 µM | Hs-578T 26.2 µM | NCI-H226 17.8 µM | NCI-H522 14.5 µM | NCI/ADR-RES 16.6 µM | OVCAR-3 19.4 µM | OVCAR-8 17 µM | RPMI-8226 25.8 µM | SK-OV-3 47.4 µM | SN12C 19.2 µM | SNB-19 57 µM | SW-620 19.1 µM | UACC-62 17.8 µM

COC(=O)c1oc([N+](=O)[O-])c(Cl)c1Cl
inactive: 786-0 4.14 µM | BT-549 7.98 µM | EKVX 19.8 µM | HCT-116 6.24 µM | HOP-92 20 µM | Hs-578T 11.4 µM | NCI-H226 21.3 µM | NCI-H522 1.7 µM | NCI/ADR-RES 13.4 µM | OVCAR-3 6.1 µM | OVCAR-8 10.6 µM | RPMI-8226 3.96 µM | SK-OV-3 19 µM | SN12C 7.53 µM | SNB-19 18.7 µM | SW-620 4.07 µM | UACC-62 8.47 µM

O=C(Nn1c(-c2ccccc2)nc2ccccc2c1=O)c1ccc(Cl)cc1
inactive: 786-0 > 100 µM | BT-549 > 100 µM | EKVX > 100 µM | HCT-116 > 100 µM | HOP-92 75.3 µM | Hs-578T 34 µM | NCI-H226 > 100 µM | NCI-H522 50.6 µM | NCI/ADR-RES > 100 µM | OVCAR-3 91.6 µM | OVCAR-8 > 100 µM | RPMI-8226 76 µM | SK-OV-3 > 100 µM | SN12C > 100 µM | SNB-19 > 100 µM | SW-620 > 100 µM | UACC-62 48.3 µM

COc1ccc2[nH]c3c(c2c1)CCN(C)CC3
inactive: 786-0 > 100 µM | EKVX > 100 µM | HCT-116 > 100 µM | HOP-92 > 100 µM | KM-20L2 > 100 µM | M19-MEL 57.4 µM | OVCAR-3 > 100 µM | OVCAR-8 > 100 µM | RPMI-8226 > 100 µM | SK-OV-3 > 100 µM | SNB-19 > 100 µM | SW-620 > 100 µM | UACC-62 > 100 µM

COc1cc(C2SCC(=O)N2Cc2ccccc2)cc(OC)c1OC (centres undefined)
inactive: 786-0 > 100 µM | BT-549 > 100 µM | EKVX > 100 µM | HCT-116 > 100 µM | HOP-92 13.2 µM | Hs-578T > 100 µM | NCI-H226 > 100 µM | NCI-H522 90.4 µM | NCI/ADR-RES > 100 µM | OVCAR-3 > 100 µM | OVCAR-8 > 100 µM | RPMI-8226 > 100 µM | SK-OV-3 > 100 µM | SN12C > 100 µM | SNB-19 > 100 µM | SW-620 > 100 µM | UACC-62 97.9 µM

CSc1c(C(=O)Nc2ccc(Cl)cc2)c(N)nn1-c1ccccc1
inactive: 786-0 9.75 µM | BT-549 > 100 µM | EKVX > 100 µM | HCT-116 > 100 µM | HOP-92 > 100 µM | Hs-578T > 28.2 µM | NCI-H226 > 100 µM | NCI-H522 > 100 µM | NCI/ADR-RES > 58.7 µM | OVCAR-3 > 100 µM | OVCAR-8 21.1 µM | RPMI-8226 > 100 µM | SK-OV-3 19.6 µM | SN12C > 100 µM | SNB-19 > 100 µM | SW-620 > 100 µM | UACC-62 > 100 µM

CCOC(=O)CCC(NC(=O)c1ccc(OCc2nc3cc(C(F)(F)F)ccc3nc2-c2ccccc2)cc1)C(=O)OCC (centres undefined)
inactive: 786-0 > 100 µM | BT-549 56.6 µM | EKVX > 100 µM | HCT-116 52.2 µM | HOP-92 79.6 µM | Hs-578T 35.8 µM | NCI-H226 13 µM | NCI-H522 > 100 µM | NCI/ADR-RES 54 µM | OVCAR-3 79.1 µM | OVCAR-8 > 100 µM | RPMI-8226 43.9 µM | SK-OV-3 > 100 µM | SN12C > 100 µM | SNB-19 > 100 µM | SW-620 > 100 µM | UACC-62 52.8 µM

CC(=O)NC1=C(NCCCl)C(=O)c2ccccc2C1=O
inactive: 786-0 50.5 µM | BT-549 47.9 µM | EKVX > 100 µM | HCT-116 20.5 µM | HOP-92 56.6 µM | Hs-578T 43.5 µM | NCI-H226 49.1 µM | NCI-H522 20.5 µM | NCI/ADR-RES 29.5 µM | OVCAR-3 49.5 µM | OVCAR-8 20 µM | RPMI-8226 40.9 µM | SK-OV-3 59.2 µM | SN12C 34.7 µM | SNB-19 58.3 µM | SW-620 25.4 µM | UACC-62 20 µM

CC1CN(CCO)CC(C)O1 (centres undefined)
inactive: 786-0 > 100 µM | BT-549 > 100 µM | EKVX > 100 µM | HCT-116 > 100 µM | HOP-92 > 100 µM | Hs-578T > 100 µM | NCI-H226 > 100 µM | NCI-H522 > 100 µM | NCI/ADR-RES > 100 µM | OVCAR-3 > 100 µM | OVCAR-8 > 100 µM | RPMI-8226 > 100 µM | SK-OV-3 > 100 µM | SN12C > 100 µM | SNB-19 > 100 µM | SW-620 > 100 µM | UACC-62 > 100 µM

COc1cccc2c1OC1(C=C2)Oc2ccccc2C(=O)N1C (centres undefined)
inactive: 786-0 35.5 µM | BT-549 31.2 µM | EKVX 18.4 µM | HCT-116 37.6 µM | HOP-92 35.2 µM | Hs-578T 21.5 µM | NCI-H226 20.9 µM | NCI-H522 19.1 µM | NCI/ADR-RES 3.91 µM | OVCAR-3 37.8 µM | OVCAR-8 4.68 µM | RPMI-8226 27.9 µM | SK-OV-3 25.9 µM | SN12C 22.5 µM | SNB-19 56.2 µM | SW-620 42.7 µM | UACC-62 40.6 µM

Clc1ccc2c(Cl)ncnc2c1
inactive: 786-0 > 100 µM | EKVX 63.4 µM | HCT-116 > 100 µM | HOP-92 85.7 µM | KM-20L2 > 100 µM | M19-MEL > 100 µM | NCI-H226 32.7 µM | NCI-H522 > 100 µM | OVCAR-3 > 100 µM | OVCAR-8 > 100 µM | RPMI-8226 > 100 µM | SK-OV-3 > 100 µM | SN12C > 100 µM | SNB-19 > 100 µM | SW-620 > 100 µM | UACC-62 > 100 µM

CC(C)(C=O)CC(C#N)/C(=N\NC(N)=O)C(=O)Nc1ccccc1C(N)=O (centres undefined)
inactive: 786-0 > 100 µM | EKVX > 100 µM | HCT-116 > 100 µM | HOP-92 38.6 µM | KM-20L2 > 100 µM | M19-MEL > 100 µM | NCI-H226 > 100 µM | NCI-H522 > 100 µM | OVCAR-3 > 100 µM | OVCAR-8 > 100 µM | RPMI-8226 > 100 µM | SK-OV-3 > 100 µM | SN12C > 100 µM | SNB-19 > 100 µM | SW-620 > 100 µM | UACC-62 > 100 µM

O=C(/C=C/C=C/c1ccccc1)c1ccccc1
inactive: 786-0 14.3 µM | BT-549 18.8 µM | EKVX 15.3 µM | HCT-116 17.6 µM | HOP-92 18.4 µM | Hs-578T 20 µM | NCI-H226 16.7 µM | NCI-H522 4.66 µM | NCI/ADR-RES 13.8 µM | OVCAR-3 19.2 µM | OVCAR-8 13.4 µM | RPMI-8226 16.1 µM | SK-OV-3 22.2 µM | SN12C 15.9 µM | SNB-19 17.9 µM | SW-620 16.7 µM | UACC-62 17.4 µM

Nn1c(-c2ccccc2)n[nH]c1=O
inactive: 786-0 > 100 µM | BT-549 > 100 µM | EKVX > 100 µM | HCT-116 > 100 µM | HOP-92 > 100 µM | Hs-578T 58.3 µM | NCI-H226 > 100 µM | NCI-H522 > 100 µM | NCI/ADR-RES > 100 µM | OVCAR-3 > 100 µM | OVCAR-8 > 100 µM | RPMI-8226 > 100 µM | SK-OV-3 > 100 µM | SN12C > 100 µM | SNB-19 > 100 µM | SW-620 > 100 µM | UACC-62 > 100 µM

COC(=O)C(=O)C(C(=O)OC)C(=O)C(=O)Nc1c(Cl)cc([N+](=O)[O-])cc1Cl (centres undefined)
inactive: 786-0 40.7 µM | BT-549 > 100 µM | EKVX 48.6 µM | HCT-116 > 100 µM | HOP-92 > 100 µM | Hs-578T 66.2 µM | NCI-H226 > 100 µM | NCI-H522 27 µM | NCI/ADR-RES 72.8 µM | OVCAR-3 > 100 µM | OVCAR-8 46 µM | RPMI-8226 > 100 µM | SK-OV-3 > 100 µM | SN12C > 100 µM | SNB-19 > 100 µM | SW-620 > 100 µM | UACC-62 > 100 µM

O=C(C(=O)N1CCc2ccccc21)c1c[nH]c2ccccc12
inactive: 786-0 > 10 µM | BT-549 > 10 µM | EKVX > 10 µM | HCT-116 > 10 µM | HOP-92 > 10 µM | Hs-578T > 10 µM | NCI-H226 > 10 µM | NCI-H522 > 10 µM | NCI/ADR-RES > 10 µM | OVCAR-3 > 10 µM | OVCAR-8 > 10 µM | RPMI-8226 > 10 µM | SK-OV-3 > 10 µM | SN12C > 10 µM | SNB-19 > 10 µM | SW-620 > 10 µM | UACC-62 > 10 µM
